Consider seven compounds from US10711245B2, “Direct conversion method of human fibroblasts into neural stem cells using small molecules” (KOREA UNIVERSITY RESEARCH AND BUSINESS FOUNDATION, priority 2015, dated 2020).

In the assay the test system is human fibroblasts. The assay is described as follows: Marker gene expression by quantitative PCR in human fibroblasts cultured with each single small-molecule compound. The following applies: each compound alone in neurobasal medium (DMEM/F12, N2, B27, bFGF, EGF), markers nestin, sox1, sox2, pax6. It counts as cell-based. The protocol: To investigate the function of each of small-molecule compounds and find an optimal combination of small-molecule compounds, 1×10^5 human fibroblasts were prepared in 60 mm dishes, and on the next day, the cells were cultured in a neurobasal medium (containing DMEM/F12, N2, B27, bFGF, and EGF) supplemented with each of 13 different small-molecule compounds (PD0325901, SB431542, Thiazovivin, Ascorbic acid, PS48, CHIR99021, Deazaneplanocin A, Valproic acid, Forskolin, Tranylcypromine, A8301, 5-AZA, and Purmorphamine). Then, the morphological changes of the cells were observed while the medium was replaced at 2-3-day intervals (FIG. 1). The cells were subcultured at 5-day intervals, and in this stage, the cells were sampled in order to examine gene expression patterns therein. Using the cell sample, the expression patterns of a fibroblast marker (Thy1), neural stem cell markers (nestin, sox1, sox2, pax6), a MET or EMT marker (snail, N-cadherin, E-cadherin), endodermal and mesodermal markers (AFP, GATA4), and a marker (Zsacn4) associated with the maintenance of chromosomal stability, in the cell sample, were analyzed by quantitative PCR (FIG. 2).
As to `NC(=O)c1ccc(-c2nc(-c3ccc4c(c3)OCO4)c(-c3ccccn3)[nH]2)cc1` [SB431542, 4-[4-(3,4-Methylenedioxyphenyl)-5-(2-pyridyl)-1H-imidazol-2-yl]benzamide], the “expressions of the neural stem cell marker genes” value (“expressions” below) is “distinctly increased”.

As to `Cc1cccc(-c2nn(C(=S)Nc3ccccc3)cc2-c2ccnc3ccccc23)n1` [A8301, 3-(6-Methyl-2-pyridinyl)-N-phenyl-4-(4-quinolinyl)-1H-pyrazole-1-carbothioamide], the “expressions” value is given as “distinctly increased”.

Consider `Nc1ncn([C@@H]2O[C@H](CO)[C@@H](O)[C@H]2O)c(=O)n1` [5-AZA, 4-amino-1-β-D-ribofuranosyl-1,3,5-triazin-2(1H)-one], for which the “expressions” value is “distinctly increased”.

`CCCC(CCC)C(=O)O` [Valproic acid, 2-propyl-pentanoic acid]: the “expressions” value was “distinctly increased”.

On to `Cc1cnc(-c2cnc(NCCNc3ccc(C#N)cn3)nc2-c2ccc(Cl)cc2Cl)[nH]1` [CHIR99021, 6-[[2-[[4-(2,4-dichlorophenyl)-5-(5-methyl-1H-imidazol-2-yl)-2-pyrimidinyl]amino]ethyl]amino]-3-pyridinecarbonitrile], for which the “expressions” value is recorded as “distinctly increased”.

Take `Nc1nccc2c1ncn2[C@@H]1C=C(CO)[C@@H](O)[C@H]1O` [Deazaneplanocin A, 5R-(4-amino-1H-imidazo[4,5-c]pyridin-1-yl)-3-(hydroxymethyl)-3-cyclopentene-1S,2R-diol]: the “expressions” value is listed as “distinctly increased”.

As to `O=C(NCc1ccccc1)c1csc(Nc2ccncn2)n1` [Thiazovivin, N-(phenylmethyl)-2-(4-pyrimidinylamino)-4-thiazolecarboxamide], the “expressions” value is reported as “distinctly increased”.
